Reference: paper PMC6493773, “Structure and mechanism of TagA, a novel membrane-associated glycosyltransferase that produces wall teichoic acids in pathogenic bacteria” (PLoS Pathogens, 2019)

How the values were obtained:
[1] = molecular target: T1, full-length TagA from T. italicus (UniProt D3T4E0); test: anion-exchange HPLC of UDP formation, […] nm; type: biochemical, Thermoanaerobacter thermocopriae; settings: 200 nM enzyme; UDP-ManNAc made in situ from 100 μM UDP-GlcNAc by MnaA; 100 μM lipid-α analog; pH 7.5, 250 mM NaCl, 30°C
T1 construct: gene Thit_1850; full-length (195 + 49 C-terminal residues); purification details only in supplement

[2] = molecular target: T2, full-length TagA from S. aureus (Staphylococcus aureus, UniProt Q7A714); test: anion-exchange HPLC of UDP formation, […] nm; type: biochemical; settings: 200 nM enzyme; UDP-ManNAc made in situ from 100 μM UDP-GlcNAc by MnaA; 100 μM lipid-α analog; pH 7.5, 250 mM NaCl, 30°C
T2 construct: gene tarA; full-length; strain and plasmid only in supplement
T2 sequence (Q7A714 whole entry): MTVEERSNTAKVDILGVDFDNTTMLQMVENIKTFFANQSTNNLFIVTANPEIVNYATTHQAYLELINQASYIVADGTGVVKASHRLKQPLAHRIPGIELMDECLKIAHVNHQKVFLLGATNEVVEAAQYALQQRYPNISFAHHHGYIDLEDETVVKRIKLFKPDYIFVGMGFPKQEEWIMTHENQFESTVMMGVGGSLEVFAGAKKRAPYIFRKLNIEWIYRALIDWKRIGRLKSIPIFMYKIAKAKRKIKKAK

T1 sequence (D3T4E0 entry or part of it): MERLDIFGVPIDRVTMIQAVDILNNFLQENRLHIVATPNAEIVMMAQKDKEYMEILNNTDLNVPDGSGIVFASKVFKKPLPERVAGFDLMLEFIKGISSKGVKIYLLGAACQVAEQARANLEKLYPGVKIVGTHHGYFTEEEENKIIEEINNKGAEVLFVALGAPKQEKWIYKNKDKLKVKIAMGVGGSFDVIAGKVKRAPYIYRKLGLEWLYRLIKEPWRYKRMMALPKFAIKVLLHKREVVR

Compound	anion-exchange HPLC of UDP formation, 271 nm [1]	anion-exchange HPLC of UDP formation, 271 nm [2]
CC(=O)N[C@@H]1[C@@H](OP(=O)(O)OP(=O)(O)OC[C@H]2O[C@@H](n3ccc(=O)[nH]c3=O)[C@H](O)[C@@H]2O)O[C@H](CO)[C@@H](O)[C@@H]1O [UDP-ManNAc]	we reconstituted its GT activity in vitro using UDP-ManNAc and a lipid-α analog	full-length TagA enzymes from T. italicus and S. aureus exhibit similar transferase activities in vitro
CCCCCCCCCCCCCOP(=O)(O)OP(=O)(O)O[C@H]1O[C@H](CO)[C@@H](O)[C@H](O)[C@H]1NC(C)=O [lipid-α analog]	using UDP-ManNAc and a lipid-α analog that replaces its undecaprenyl chain with tridecane	
